# Assay results: US8440628B2, “Medical compositions containing ghrelin” (Daiichi Sankyo Company, Limited, priority 2002, dated 2013)
# What was measured:
# [1] = Adsorption inhibiting effect of anti-adsorbents on human ghrelin in glass and polypropylene test tubes (Example 9); type: physicochemical; conditions: human ghrelin 1.0 μg/mL in 5% mannitol-0.05M glycine hydrochloride buffer (pH 3.5), anti-adsorbent None (control)
# Protocol: As the anti-adsorbent, the surfactant, that is, polyoxyethylene sorbitan monooleate (hereinafter, referred to as Tween® 80), and benzalkonium chloride were selected.
# The anti-adsorbent was added to this solution with 0.01% or 0.1% concentration.
# The human ghrelin concentrations of each solution were measured by HPLC method right after preparation, and these solutions were replaced in glass test tubes. After that, each solution were further replaced in new glass test tubes, and same operation was repeated for 5 and 10 times, then, the human ghrelin concentrations of each treated solution were measured by HPLC method. As a control, the solution not containing anti-adsorbent was examined.
# Same procedure was repeated by using test tube made by polypropylene instead of glass test tube.
# [2] = Stability of human ghrelin in citrate buffer solutions, 40°C/2 weeks (Example 4); type: physicochemical
# Protocol: The obtained solutions were filled in brownish glass ampoules and the ampoules were sealed with fire, then, each ampoules were stored at 40±1° C. for 2 weeks. After storage for 2 weeks, the HPLC analysis of the solutions was conducted to calculate the residual ratio from the concentration of human ghrelin. The change of pH value was also measured.
# [3] = human ghrelin 0.5 mg/mL in citrate buffer solution pH 3.5, after storage for 40° C./2 weeks
# [4] = human ghrelin 0.5 mg/mL in citrate buffer solution pH 3.5, just after preparation
# [5] = human ghrelin 0.5 mg/mL in citrate buffer solution pH 4.0, after storage for 40° C./2 weeks
# [6] = human ghrelin 0.5 mg/mL in citrate buffer solution pH 4.0, just after preparation
# [7] = human ghrelin 0.5 mg/mL in citrate buffer solution pH 4.5, after storage for 40° C./2 weeks
# [8] = human ghrelin 0.5 mg/mL in citrate buffer solution pH 4.5, just after preparation
# [9] = human ghrelin 0.5 mg/mL in citrate buffer solution pH 5.0, after storage for 40° C./2 weeks
# [10] = human ghrelin 0.5 mg/mL in citrate buffer solution pH 5.0, just after preparation
compound,measurement,setting,value
CCCCCCCC(=O)OC[C@H](NC(=O)[C@H](CO)NC(=O)CN)C(=O)N[C@@H](Cc1ccccc1)C(=O)N[C@@H](CC(C)C)C(=O)N[C@@H](CO)C(=O)N1CCC[C@H]1C(=O)N[C@@H](CCC(=O)O)C(=O)N[C@@H](Cc1c[nH]cn1)C(=O)N[C@@H](CCC(N)=O)C(=O)N[C@@H](CCCNC(=N)N)C(=O)N[C@H](C(=O)N[C@@H](CCC(N)=O)C(=O)N[C@@H](CCC(N)=O)C(=O)N[C@@H](CCCNC(=N)N)C(=O)N[C@@H](CCCCN)C(=O)N[C@@H](CCC(=O)O)C(=O)N[C@@H](CO)C(=O)N[C@@H](CCCCN)C(=O)N[C@@H](CCCCN)C(=O)N1CCC[C@H]1C(=O)N1CCC[C@H]1C(=O)N[C@@H](C)C(=O)N[C@@H](CCCCN)C(=O)N[C@@H](CC(C)C)C(=O)N[C@@H](CCC(N)=O)C(=O)N1CCC[C@H]1C(=O)N[C@@H](CCCNC(=N)N)C(=O)O)C(C)C [Human ghrelin],Human ghrelin concentration of the solution (Initial Conc. = 100),"[1]; Glass tube, replaced 5 times",0
same,Human ghrelin concentration of the solution (Initial Conc. = 100),"[1]; Glass tube, replaced 10 times",0
same,Human ghrelin concentration of the solution (Initial Conc. = 100),[1]; Initial Conc.,100
same,Human ghrelin concentration of the solution (Initial Conc. = 100),"[1]; Polypropylene tube, replaced 5 times",51
same,Human ghrelin concentration of the solution (Initial Conc. = 100),"[1]; Polypropylene tube, replaced 10 times",19
same,Residual ratio,[2]; [3],89%
same,pH observed,[2]; [3],3.5
same,Residual ratio,[2]; [4],100%
same,pH observed,[2]; [4],3.6
same,Residual ratio,[2]; [5],88%
same,pH observed,[2]; [5],4.0
same,Residual ratio,[2]; [6],100%
same,pH observed,[2]; [6],4.0
same,Residual ratio,[2]; [7],86%
same,pH observed,[2]; [7],4.4
same,Residual ratio,[2]; [8],100%
same,pH observed,[2]; [8],4.5
same,Residual ratio,[2]; [9],85%
same,pH observed,[2]; [9],4.9
same,Residual ratio,[2]; [10],100%
same,pH observed,[2]; [10],5.0
